According to patent publication US20020061849A1, “Methods for treatment of diseases associated with inflammation under non-ischemic conditions” (priority 2000, published 2002):

Legend:
AQP2 = assay: Bilateral ureteral obstruction (BUO), semiquantitative immunoblotting of AQP2; type: in vivo, rat; conditions: inner medulla, 24 h BUO; α-MSH 50 μg i.v. at onset and 12 hours later (nontreated 13±4%); epoitin 100 U/kg/day i.p. (nontreated 16±3%)
Description: (§1) Adult Munich-Wistar rats were anesthetized with halothane and placed on a heating board under an operating microscope, Through a midline abdominal incision both ureters were exposed and occluded by placing a 5-mm piece of bisected polyethylene tubing (PE-50) around the midportion of each ureter. The ureter was then occluded by tightening the tubing with a 5-0 silk ligature. 24 hours later, the obstructed ureters were decompressed by removal of the ligature and the PE-50 tubing. Done in this manner, both ureters could be completely occluded for 24 h and without evidence of functional impairment of ureteral function and rats followed up to several days after release of obstruction.
(§2) Protocol III-1: This protocol included 1) Rats with BUO for 24 hours (n=20) and 2) sham-operated rats (n=10).
Protocol III-6: This protocol included 1) Rats with BUO for 24 hours and 2) sham-operated rats. […]
(§3) ECL films with bands within the linear range were scanned using an AGFA scanner (ARCUS II) and Corel Photopaint Software to control the scanner. […] The labeling density was determined of blots where samples of kidneys from α-MSH treated and nontreated groups were run together with samples from control kidneys. […]

[1] = system: lung tissue exposed with LPS; assay: LPS-inhalation induced lung inflammation, differential counting of lavage cells; conditions: rats, LPS inhalation 5 mg for 20 min, lavage 24 h later, treatment at onset of LPS and after 12 hours (α-MSH 50 μg i.v.; Epoitin 100 U/kg/day i.p.)
Description: Studies were performed on male Spraque Dawley rats (Møllegard Breeding centre Ltd., Eiby, Denmark). The rats were maintained on a standard rodent diet (Altromin, Lage, Germany) with free access to water. Inflammation of the lungs (asthma) was induced by LPS inhalation with the animals anesthetized using Midazolam and Hypnorm The LPS was administrated by connecting the rat to a semiclosed breathing system consisting of a MAXIN bottle filled with a mixture of LPS in saline connected to a standard inhalation chamber. Each animals is exposed for 20 min with 5 mg LPS. Twenty-four hours after exposure to LPS rats were killed. Subsequently, lavage was performed by washing the lungs with PBS (5 ml) 6 times. The lung tissue was then centrifuged for 10 min (1000 rpm) and resuspended in 0.5 ml. From each sample 2 blood smears were made. They were air-dryed, fixed and counterstained for differential cell counting.

[2] = system: adriamycin-induced nephrotic syndrome; assay: Adriamycin-induced nephrotic syndrome
Description: Protocol IV-1. Rats were treated with adriamycin (7.5 mg/kg i.p.; n=12) and followed for 21 days, respectively. Shams received saline i.p. (n=6). […] The other half received vehicle (saline) in osmotic minipumps.
Protocol IV-3. Rats were treated with adriamycin (7.5 mg/kg i.p.; n=8) and followed for 21 days, respectively. Shams received saline i.p. (n=6). Half of the adriamycin treated animals received epoetin (100 units/kg/day) during the entire experiments. The other half received vehicle (saline).

[3] = system: renal function in rats treated with continious LPS infusion; assay: Systemic LPS infusion by osmotic minipump for three days, renal function; conditions: for increase of GFR (creatinin clearance) compared to the LPS-Vehicle group: LPS infusion for three days; for survival during 3 days of LPS-administration: N=5 per group, mortality in vehicle group 20%
Description: To relieve postoperative pain, rats were treated with buprenorfin, 0.2 mg/kg body weight i.p. Two weeks later the rats were anesthetized with halothane-nitrous oxide and a osmotic minipump (Alzet 1003D)filled with a LPS solution was implanted into the abdomen. The mean infusion rate of LPS was 200 μg/kg/hour. All rats except the control rats received LPS infusion. N=5 in all groups.
Protocol II: Systemic LPS-infusion:
II-1. Controls. Untreated rats without LPS infusion.
II-2 Vehicle: Rats receiving LPS infusion treated with 0.5 ml 0.9% NaCl twice daily.
II-3 rh-EPO: Rats receiving LPS infusion treated with 200 I.U. epoitin alpha (EPO)/kg body weight in 0.5 ml 0.9% NaCl twice daily.

Na,K-ATPase = assay: Bilateral ureteral obstruction (BUO), semiquantitative immunoblotting of Na,K-ATPase; type: in vivo, rat; conditions: whole kidney; for Na-K-ATPase levels, % of control: nontreated 35-50% of control levels
Description: as §1, §2
(§4) Protocol III-2: This protocol included 1) Rats with BUO for 24 hours and followed by release for 5 hours (n=10) and 2) Sham operated rats (n=5). The rats with BUO-R were divided into two groups: α-MSH nontreated (n=5) and α-MSH treated (n=5). α-MSH ([…], i.v.) was given at the onset of BUO, 12 hours later and at the onset of release.
Protocol III-3: This protocol included 1) Rats with BUO for 24 hours and followed by release for 48 hours. The rats were divided into two groups: α-MSH nontreated (n=10) and α-MSH treated (n=13). α-MSH (50 μg) was given with micro-osmotic pump via jugular vein at the onset of BUO. 2) Sham operated rats (n=8) treated with vehicle with micro-osmotic pump. […]
as §3

AQP1 = assay: Bilateral ureteral obstruction (BUO), semiquantitative immunoblotting of AQP1; type: in vivo, rat
Description: as §1, §4
(§5) Protocol III-3: This protocol included 1) Rats with BUO for 24 hours and followed by release for 48 hours. The rats were divided into two groups: α-MSH nontreated (n=10) and α-MSH treated (n=13). α-MSH (50 μg) was given with micro-osmotic pump via jugular vein at the onset of BUO. 2) Sham operated rats (n=8) treated with vehicle with micro-osmotic pump.
Inner medulla and whole kidneys were homogenized (0.3 M sucrose, 25 mM imidazole, 1 mM EDTA, pH 7.2, containing 8.5 μM leupeptin. 1 mM phenylmethyl sulfonylfluoride) using an ultra-turrax T8 homogenizer (IKA Labortechnik, Germany), at 5 strokes for 20 seconds (inner medulla) or at 5.5 strokes for 30 seconds (whole kidney) and the homogenate was centrifuged in an Eppendorf centrifuge at 4000 g for 15 minutes at 4° C. to remove whole cells, nuclei and mitochondria. Gel samples (Laemmli sample buffer containing 2% SDS) were made of this pellet.
[…] For each gel, identical gel was run in parallel and subjected to Coomassie staining to assure identical loading. Then gels were subjected to immunoblotting. […] The labeling was visualized with horseradish peroxidase (HRP)-conjugated secondary antibodies (P448, DAKO, Glostrup Denmark, diluted as 1:3000) using an enhanced chemiluminescence system (ECL, Amersham International, UK).
as §3, with “scanner. For AQP1 and AQP2, both the 29-kDa and the 35- to 50-kDa bands (corresponding to nonglycosylated and the glycosylated species) were scanned.” for “scanner.”

[4] = system: purimycin-induced nephrotic syndrome; assay: Purimycin (PAN)-induced nephrotic syndrome
Description: Nephrotic syndrome was induced by a single i.p. or s.c. injection of adriamycin or purimycin (at various doses) and the rats were followed for 7 days-21 days. Development of severe nephrotic syndrome was established by monitoring the total body weight, urinary protein excretion (proteinuria) and at time of ending the experiment the volume of fluid in the abdominal cavity was determined (rats develop severe water retention and ascites).
Protocol IV-2. Rats were treated with purimycin (100 mg/kg i.p., n=6) and followed for 11 days, respectively.
To determine the levels of proteinuria in experimental nephrotic syndrome urine was examined daily using Albym (Boehringer-Mannheim).

[5] = system: renal function in rats with BUO; assay: Bilateral ureteral obstruction (BUO), plasma parameters and clearance studies; type: in vivo, rat
Description: as §1, §2, §5
1) Rats with BUO for 24 hours followed by release for 48 hours (n=10) and 2) sham-operated rats (n=5).
Weight, water intake, food intake and urine output were observed during the rats were maintained in the metabolic cages. Urine was collected over 24-h periods throughout the study. Urine volume, osmolality, creatinine, sodium and potassium concentration were measured. Plasma was collected from abdominal aorta at the time of sacrifice for measurement of sodium and potassium concentration, creatinine, and osmolality. In protocols 4 and 9 detailed examinations of renal function was performed: The experiments were carried out between 8 a.m. and 1 p.m. The rats were transferred to a restraining cage and connected to infusion pumps via the vein catheter and to a BP transducer via the arterial catheter. Urine was collected in three periods of 20 min preceded by an equilibration period of 105 min. Throughoutthe experiment, a half isotone saline (77 mM NaCl) was infused at a rate of 70 μl/min to maintain a minimum urine flow necessary for accuracy of the bladder emptying. ^14C-tetraethylammonium bromide (0.83 μCi/ml; New England Nuclear, Boston, Mass.), together with ^3H-inulin (2.5 μCi/ml; Amersham, Rainham, United Kindgom) and LiCI (13 mmol/L), were infused together with the saline as markers of effective renal plasma flow (ERPF), GFR, and tubular fluid delivery from proximal tubules (Vprox), respectively. A bolus of markers four times the continuous infusion velocity was given in the first 15 min. Blood samples (200 μl) were drawn from the arterial catheter after 105 and 165 min. Blood substitution with donor blood was given after each blood sample. Mean arterial BP was recorded continuously using a Uniflow™ transducer (Baxter, Irvine, Calif.) connected to a preamplifier and PC registration. Clearance experiments were carried out in BUO and SHAM rats 7 days prior to obstruction and 48 hours after release of BUO.
Urine volume was determined by gravimetric means.

AQP3 = assay: Bilateral ureteral obstruction (BUO), semiquantitative immunoblotting of AQP3; type: in vivo, rat; conditions: inner medulla
Description: as §1, §2
Protocol III-2: This protocol included 1) Rats with BUO for 24 hours and followed by release for 5 hours (n=10) and 2) Sham operated rats (n=5). […]
as §3

[6] = BUO for 24 h followed by 48 h of release

epoitin alpha
AQP2 expression, % of sham level (AQP2): 30±18% | Differential counting of cells %, Eosinofiles [1]: 0.7 ± 0.6% | Differential counting of cells %, Lymfocytes [1]: 77.1 ± 9.9% | Differential counting of cells %, Monocytes [1]: 11.4 ± 4.6% | Differential counting of cells %, Neutrofiles [1]: 10.9 ± 12.7% | Differential counting of cells %, Eosinofiles ([1]; listed as epoitin): 0.7±0.6% | Differential counting of cells %, Neutrofiles ([1]; listed as epoitin): 10.9±12.7% | ascites formation, result in words ([2]; adriamycin-induced nephrotic syndrome, EPO once every 24 hours): prevented the ascites formation | increase of GFR (creatinin clearance) compared to the LPS-Vehicle group [3]: 51% | survival during 3 days of LPS-administration [3]: All animals survived

α-melanocyte-stimulating hormone [α-MSH]
Na-K-ATPase levels, % of control (Na,K-ATPase; 24 h BUO followed by 5 h of release): 102±14% | Na,K-ATPase levels (Na,K-ATPase; 24 h BUO, result in words): completely normalized | Na-K-ATPase levels, % of control (Na,K-ATPase; 48 hours after release of BUO): 114±10% | AQP1 expression, % of sham level (AQP1; outer medulla and cortex, 24 h BUO followed by release for 5 hours, nontreated 35±2%): 62±9% | AQP1 expression, % of sham level (AQP1; outer medulla and cortex, 24 h BUO followed by release for 48 hours, α-MSH by micro-osmotic pump): 73±8% | AQP1 expression, % of sham level (AQP1; whole kidney, 24 h BUO followed by release for 5 hours, α-MSH 50 μg i.v. at onset, 12 hours later and at release, nontreated 7±2%): 81±21% | AQP1 expression, % of sham level (AQP1; whole kidney, 24 h BUO followed by release for 48 hours, α-MSH 50 μg by micro-osmotic pump, nontreated 24±5%): 58±6% | AQP2 expression, % of sham level (AQP2): 38±5% | proteinuria levels ([4]; PAN rats at day 5 after PAN injection (FIG. 3), result in words): marked reduction | proteinuria ([4]; low dose purimycin treatment (Protocol IV-2), result in words): marked reduction | reduction of ascites production ([4]; low dose purimycin treatment, n=6 (Protocol IV-2)): 80±8% | preventive effect on nephrotic syndrome ([4]; very servere purimycin (high dose) induced nephrotic syndrome, result in words): less potent effect | Differential counting of cells %, Eosinofiles [1]: 1.8±1.3% | Differential counting of cells %, Lymfocytes [1]: 72.3 ± 12.1% | Differential counting of cells %, Monocytes [1]: 12.3 ± 7.4% | plasma sodium levels ([5]; 24 h BUO, without α-MSH 135±2 mmol/L): 139 ± 0.6 mmol/L | Glomerular filtration rate (GFR) ([5]; 48 hours after release of BUO, SHAM 840±105): 705±85 μl/min/100 g | Effective renal plasma flow (ERPF) ([5]; 48 hours after release of BUO, SHAM 2633±457): 2598±129 μl/min/100 g | plasma urea ([5]; BUO for 24 h followed by 48 of release, nontreated 35±9 mmol/l): 13 ± 2 mmol/L | Plasma creatinine levels ([5]; BUO for 24 h followed by 48 of release, nontreated 160±34 μmol/l): 79 ± 34 µmol/L | ERPF, result in words [5, 6]: completely normalized | GFR, result in words [5, 6]: completely normalized | prevention of ascites production ([2]; adriamycin i.p. (Protocol IV-1), α-MSH for 3-4 days after injection): 89±7% | AQP3 expression, % of sham level (AQP3; 24 h BUO followed by release for 5 hours, nontreated 14±5%): 34±4% | AQP3 expression, % of sham level (AQP3; 24 h BUO, α-MSH 50 μg i.v. at onset and 12 hours later, nontreated 19±4%): 44±3% | increase of GFR (creatinin clearance) compared to the LPS-Vehicle group [3]: 57% | survival during 3 days of LPS-administration [3]: All animals survived
